Reference: US9539248B2, “Agent for ameliorating chronic obstructive pulmonary disease” (LTT BIO-PHARMA CO., LTD., priority 2012, dated 2017)

How the values were obtained:
[1] = tested on: porcine pancreatic elastase-induced pulmonary emphysema and altered lung function; test: Test Example 1: porcine pancreatic elastase-induced pulmonary emphysema and altered lung function, mepenzolate via the airway or by inhalation; format: in vivo, ICR mice; conditions: for damage in the alveolar wall: H&E sections; for mean linear intercept (MLI): PPE 100 μg per mouse
Method: 100 μg of porcine pancreatic elastase per mouse and different doses of mepenzolate were dissolved in 30 μL of phosphate buffered saline (PBS) per mouse and this solution was injected into the airway of a mouse anesthetized with chloral hydrate by a micropipette. A mouse was placed in a chamber. Then, the whole amount of a mepenzolate solution prepared by dissolving mepenzolate in 10 mL of PBS was sprayed onto the mouse over 30 minutes by using an ultrasonic nebulizer (NE-U07, manufactured by OMRON Corporation) that was connected to the chamber. Lung function and airway resistance were measured by using a computer-controlled small animal ventilator (FlexiVent, SCIREQ Scientific Respiratory Equipment Inc.). A mouse was anesthetized with chloral hydrate, a tracheostomy was performed, and an 8 mm metal tube was inserted into the trachea. Ventilation was performed on the mouse with a volume of 8.7 mL/kg, a positive end-expiratory pressure of 2 to 3 cmH2O, and a respiratory rate of 150 times/min. Total respiratory system elastance was measured by a snap shot technique and tissue elastance was measured by a forced oscillation technique. Data analysis was conducted by using FlexiVent software. A lung damage model for pulmonary emphysema and altered lung function was generated by administering 100 μg of porcine pancreatic elastase per mouse to 4 to 6 week old ICR mice once via the airway. Different doses of mepenzolate were administered to these mice via the airway (μg/kg) or by inhalation (μg/chamber) once daily for 14 days (Day 0 to Day 13) and the mice were euthanized on Day 14. Sections of the lung tissues were prepared and dyed with H&E (hematoxylin-eosin staining), and stained images were obtained by electron microscopy. The airspace size in the cells in the H&E stained images obtained above was measured as a mean linear intercept (MLI; μm). Then, on Day 14, the total respiratory system elastance and the tissue elastance were measured by the method described in the above-mentioned “Measurement of Elastance.”

[2] = tested on: porcine pancreatic elastase pretreatment-induced pulmonary emphysema and altered lung function; test: Test Example 2: porcine pancreatic elastase pretreatment-induced pulmonary emphysema and altered lung function; format: in vivo, ICR mice
Method: 100 μg of porcine pancreatic elastase per mouse and different doses of mepenzolate were dissolved in 30 μL of phosphate buffered saline (PBS) per mouse and this solution was injected into the airway of a mouse anesthetized with chloral hydrate by a micropipette.
(§1) Lung function and airway resistance were measured by using a computer-controlled small animal ventilator (FlexiVent, SCIREQ Scientific Respiratory Equipment Inc.).
A mouse was anesthetized with chloral hydrate, a tracheostomy was performed, and an 8 mm metal tube was inserted into the trachea. Ventilation was performed on the mouse with a volume of 8.7 mL/kg, a positive end-expiratory pressure of 2 to 3 cmH2O, and a respiratory rate of 150 times/min.
Total respiratory system elastance was measured by a snap shot technique and tissue elastance was measured by a forced oscillation technique.
After 4 to 6 week old ICR mice were used and treated with porcine pancreatic elastase by a similar method to that in Test Example 1, different doses (μg/kg) of mepenzolate were administered to these mice via the airway once daily from 14 days to 20 days after the treatment. Then, the mice were euthanized, sections of the lung tissues were prepared and dyed with H&E, and stained images were obtained by electron microscopy.
Subsequently, the airspace size in the cells in the obtained H&E stained images was measured as a mean linear intercept.
Then, on Day 21, the total respiratory system elastance and the tissue elastance were measured by a similar method to that in Test Example 1.

[3] = tested on: poor lung function induced by porcine pancreatic elastase; test: Test Example 3: FEV0.05/FVC in poor lung function induced by porcine pancreatic elastase, compared with muscarinic antagonists; format: in vivo, ICR mice; conditions: 38 μg/kg by airway administration once daily for 11 days, measured on Day 14 (FIG. 10)
Method: Measurement of a ratio of forced expiratory volume (FEV) in the first 0.05 seconds to forced vital capacity (FVC) (FEV0.05/FVC) was performed by using the above-mentioned computer-controlled small animal ventilator connected to a negative pressure reservoir (SCIREQ Scientific Respiratory Equipment Inc.). FEV0.05/PVC was determined by using the FlexiVent software. As with Test Example 1, 4 to 6 week old ICR mice were treated with porcine pancreatic elastase. […] On Day 14, FEV0.05/FVC was measured by the method described in the above-mentioned “Measurement of FEV0.05/FVC.”

[4] = tested on: methacholine-induced airway constriction; test: Test Example 4: methacholine-induced airway constriction, airway administration; format: in vivo, ICR mice
Method: as §1
(§2) Increase in airway resistance induced by methacoline was measured. 4 to 6 week old ICR mice received 1 mg/mL methacoline by nebulization over 20 seconds and this was repeated five times. After administration of methacoline was completed, the airway resistance was measured by a snap shot technique. All the data were analyzed by using FlexiVent software.
Different doses (μg/kg) of mepenzolate were administered to the mice via the airway, and one hour after administration, the mice received five exposures to nebulized methacoline, and then, the airway resistance for each dose was measured.
Furthermore, mepenzolate was administered to the mice at a dose of 38 μg/kg. Then, the mice received five exposures to nebulized methacoline at 6 hours, 24 hours, and 48 hours after drug administration. The airway resistance for each time length was measured.

[5] = tested on: porcine pancreatic elastase-induced inflammation; test: Test Example 5: porcine pancreatic elastase-induced inflammation (BALF cell counts and cytokines); format: in vivo, ICR mice
Method: Different doses of mepenzolate were administered to 4 to 6 week old ICR mice once via the airway. 100 μg of porcine pancreatic elastase per mouse was administered one hour after administration of mepenzolate. Bronchoalveolar lavage fluid (BALF) was collected from the lung 24 hours after administration of porcine pancreatic elastase and a total cell count and a neutrophil count were measured. Furthermore, the total number of TNF-α, MIP-2, MCP-1, or KC in the bronchoalveolar lavage fluid when 38 μg/kg of mepenzolate was administered via the airway was measured by an ELISA method.

[6] = tested on: pulmonary emphysema and altered lung function resulting from smoking; test: Test Example 6: pulmonary emphysema and altered lung function resulting from smoking; format: in vivo, DBA/2 mice; conditions: cigarette smoke 6 weeks
Method: Three-times-a-day exposure to smoking and once-a-day coadministration of 38 μg/kg of mepenzolate were performed on 5 week old DBA/2 mice, 5 days a week (Monday to Friday) for 6 weeks. The mice were subjected to only smoking during the final week. The mice were subjected to smoking by the method described below. 15 to 20 mice were placed in a 45 L chamber and the chamber was connected to a cigarette smoke generator. Commercially available unfiltered cigarette that produced 28 mg of tar and 2.3 mg of nicotine were used. The mice were exposed to smoke of one cigarette over 35 minutes, which was repeated three times a day for five days a week. This was continued for 6 weeks. The mice were made to inhale the cigarette smoke 15 times over a 5-minute period. Mepenzolate was administered to the mice by inhalation. After smoking was completed, the mice were euthanized, sections of the lung tissues were prepared and dyed with H&E, and stained images were obtained by electron microscopy. The airspace size in the cells in the H&E stained images obtained above was measured as a mean linear intercept. Then, the total respiratory system elastance and the tissue elastance were measured by a similar method to that in Test Example 1.

[7] = tested on: porcine pancreatic elastase-induced pulmonary emphysema and altered lung function; test: Test Example 7: oral administration in porcine pancreatic elastase-induced pulmonary emphysema and altered lung function; format: in vivo, ICR mice; conditions: oral administration once daily for 14 days, different doses (mg/kg) (FIG. 18 to 20)
Method: (§3) 100 μg of porcine pancreatic elastase per mouse was administered to 4 to 6 week old ICR mice once via the airway. Then, different doses (mg/kg) of mepenzolate were administered to the mice orally once daily for 14 days. After administration, sections of the lung tissues were excised. Subsequently, the sections were subjected to H&E dyeing, MLI measurement, and elastance measurement performed by a similar method to that in Test Example 1.

[8] = tested on: porcine pancreatic elastase-induced COPD model; test: Test Example 8: rectal administration in porcine pancreatic elastase-induced COPD model, inflammatory cells in alveolar lavage fluid; format: in vivo, ICR mice; conditions: intrarectal once daily, lavage fluid collected 3 days later (FIG. 21)
Method: 100 μg of porcine pancreatic elastase per mouse was administered to 4 to 6 week old ICR mice once via the airway to induce damage in the lung. Different concentrations of mepenzolate were administered intrarectally once daily. The alveolar lavage fluid was collected 3 days later and the total cell count was counted. The neutrophil count was also counted by dyeing the cells by a Diff-Quick technique.

[9] = tested on: porcine pancreatic elastase-induced COPD model; test: Test Example 8: rectal administration in porcine pancreatic elastase-induced COPD model, lung damage (H&E, MLI, elastance, FEV0.05/FVC); format: in vivo, ICR mice; conditions: intrarectal once daily for 14 days, different doses (mg/kg) (FIG. 22 to 24)
Method: as §3, with “airway to induce damage in the lung. Furthermore,” for “airway. Then,”, “intrarectally” for “orally”

[10] = tested on: methacoline-induced airway constriction; test: Test Example 9: rectal administration in methacoline-induced airway constriction; format: in vivo, mice; conditions: different doses (mg/kg) (FIG. 25)
Method: as §2, with “software. Different doses (mg/kg) of mepenzolate were administered intrarectally and airway resistance induced by methacoline was measured by a similar method to that in Test Example 4.” for “software.”

[11] = airway administration, Day 14 (FIG. 3)
[12] = inhalation administration, Day 14 (FIG. 6)
[13] = airway administration, Day 21 (FIG. 9)
[14] = 38 μg/kg via the airway, ELISA (FIG. 14)
[15] = different doses once via the airway 1 h before PPE, BALF 24 hours after PPE (FIG. 13)
[16] = 38 μg/kg once a day by inhalation (FIG. 17)

C[N+]1(C)CCC[C@@H](OC(=O)C(O)(c2ccccc2)c2ccccc2)C1 (racemic) [mepenzolate, mepenzolate bromide]
damage in the alveolar wall ([1]; airway administration once daily for 14 days): improved | mean linear intercept (MLI) ([1]; airway administration once daily for 14 days, Day 14 (FIG. 1, 2)): suppressed | tissue elastance [1, 11]: significantly improved | total respiratory system elastance [1, 11]: significantly improved | damage in the alveolar wall ([1]; inhalation administration once daily for 14 days): improved | mean linear intercept (MLI) ([1]; inhalation administration once daily for 14 days, Day 14 (FIG. 4, 5)): suppressed | tissue elastance [1, 12]: significantly improved | total respiratory system elastance [1, 12]: significantly improved | suppressive effect on mean linear intercept, inhalation compared with airway administration ([1]; inhalation vs airway administration): inhalation administration had a slightly better suppressive effect | damage in the alveolar wall ([2]; airway administration once daily from 14 to 20 days after PPE treatment): improved dose-dependently | mean linear intercept ([2]; airway administration once daily from 14 to 20 days after PPE treatment (FIG. 7, 8)): suppressed | tissue elastance [2, 13]: significantly improved | total respiratory system elastance [2, 13]: significantly improved | recovering effect of vital capacity represented by FEV0.05/FVC reduced by PPE administration [3]: effectively exhibited a recovering effect | airway resistance induced by methacoline, duration of effect ([4]; 38 μg/kg, methacoline at 6, 24 and 48 hours after administration (FIG. 12)): reduced the airway resistance even 24 hours after administration | airway resistance induced by methacoline ([4]; airway administration at 0.04, 0.08, 0.38, 3.8 and 38.0 μg/kg, one hour after administration (FIG. 11)): reduced the airway resistance almost dose-dependently | KC in the BALF [5, 14]: decreased | MCP-1 in the BALF [5, 14]: decreased | MIP-2 in the BALF [5, 14]: decreased | TNF-α in the BALF [5, 14]: decreased | neutrophil count of the BALF [5, 15]: decreased dependently on the dose | total cell count of the BALF [5, 15]: decreased dependently on the dose | damage in the alveolar wall ([6]; 38 μg/kg once a day by inhalation): improved | mean linear intercept ([6]; 38 μg/kg once a day by inhalation (FIG. 15, 16)): suppressed | tissue elastance [6, 16]: significantly improved | total respiratory system elastance [6, 16]: significantly improved | damage in the lung (H&E, MLI, elastance) [7]: improved damage in the lung | inflammatory cells (total cell count, neutrophil count) in alveolar lavage fluid [8]: decrease in the inflammatory cells was observed | damage in the lung induced by elastase (H&E, MLI, elastance, FEV0.05/FVC) [9]: improved damage in the lung induced by elastase | airway resistance induced by methacoline [10]: showed an excellent effect

CN1CCN(CC(=O)N2c3ccccc3C(=O)Nc3cccnc32)CC1 [pirenzepine]
recovering effect of vital capacity represented by FEV0.05/FVC reduced by PPE administration [3]: did not show a significant recovering effect
